The target in series [1] is T1, FXR (Homo sapiens, UniProt Q96RI1).
T1 sequence (Q96RI1 262-486 limits assumed): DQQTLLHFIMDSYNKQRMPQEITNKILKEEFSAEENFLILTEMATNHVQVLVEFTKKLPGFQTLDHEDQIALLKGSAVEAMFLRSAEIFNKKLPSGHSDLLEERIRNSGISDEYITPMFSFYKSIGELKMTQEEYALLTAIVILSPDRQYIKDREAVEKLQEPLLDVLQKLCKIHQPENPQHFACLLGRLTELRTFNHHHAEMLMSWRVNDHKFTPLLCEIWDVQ
In words: FXR TR-FRET binding assay (DY246 fluorescent probe). As to conditions: for IC50: mean ± SE; for inhibition at 0.493 µM: at 493 nM; for inhibition at 0.164 µM: at 164 nM. How it is done:
The FXR TR-FRET binding assay was performed as previously described^23 with modifications. […] The plate was spun down after a brief shake and incubated at room temperature for 20 min. The TR-FRET emission signals at 520 nm and 490 nm for each well was then collected using a PHERAstar plate reader (BMG LABTECH, Cary, N.C.) with an excitation wavelength of 337 nm, 100-μs delay time, and 200-μs integration time. The 520 nm/490 nm ratio from each well was then calculated. […] The % inhibition of tested chemicals at given concentration was calculated based on negative and positive controls using equation 1.
(In general: TR-FRET usually uses a lanthanide donor and a delayed reading to cut background.)

For series [2], the system named is GeneBLAzer FXR-UAS-bla HEK 293T cells. As to conditions: human, 16 h, 40 μM.
Description: To examine if certain chemical antagonistic effect was caused by cytotoxicity, the same GeneBLAzer FXR cells were used to perform cytotoxicity assay. This assay was set up like the FXR agonistic assay, with the exception of signal reading. Instead of detecting the reporter activities, CellTiter-Glo® assay was used to detect cell viability. DMSO with cells or without cells group were served as negative (0% Inhibition) or positive (100% Inhibition), respectively.
Cytotoxicity assays were performed side-by-side with the FXR agonistic assay using GeneBLAzer FXR-UAS-bla HEK 293T cells with CellTiter-Glo® Luminescent Cell Viability Assay reagent (Promega). Briefly, cells were maintained in DMEM supplemented with 10% dialyzed FBS, 0.1 mM non-essential amino acids, 25 mM HEPES, 100 μg/ml of hygromycin B, 100 μg/ml of zeocin, 100 units/ml penicillin and 100 μg/ml streptomycin in regular tissue culture flasks. […] As a positive control, the wells in column 24 of each plate were filled with 30 μL assay medium along with 0.5% DMSO. The final DMSO concentration was 0.5% in each assay well. After a 16 h incubation in a cell culture incubator at 37° C., the cell plates were cooled at room temperature for 20 min and then CellTiter-Glo® reagent 20 μl/well was added followed by an incubation for 20 min in the dark to allow the development of optimal luminescence signal. The luminescence signal from each well in plates was collected with an Envision plate reader equipped with Ultra-sensitive Luminescence detector. The DMSO group and no cell group served as negative (0% activation) and positive (100% activation) controls, respectively. The % inhibition was calculated using equation 4 below.
For series [3], the target named is T1, FXR. In words: GeneBLAzer FXR cell-based antagonistic assay (in presence of 400 nM GW4064). As to conditions: for IC50: with 400 nM GW4064, read-out: GB FXR Cell Anta. IC50. On the set-up: the Gal4 DBD was fused to the LBD of FXR in this assay; host or cells: GeneBLAzer FXR-UAS-bla HEK 293T cells. How it is done:
A GeneBLAzer FXR cell-based assay was used to investigate the cellular activities of the 1,3,4-trisubstituted-pyrazol-4-carboxamide analogs. The assay detects the levels of a […] reporter controlled by a promoter containing the binding site of the DNA binding domain (DBD) of the GAL4 transcription factor; the Gal4 DBD was fused to the LBD of FXR in this assay.^35
FXR transactivation assays were performed using GeneBLAzer FXR-UAS-bla HEK 293T cells (Invitrogen). Cells were maintained according to the manufacturer's instructions. […] Plates were then incubated in dark for 90 min at room temperature before measuring the fluorescent emissions at 460 nm and 535 nm (using excitation at 400 nm) with an Envision plate reader with bottom read capacity. After background signal subtraction for individual emission channels, emission signals at 460 and 535 nm from each well were used to determine the ratio of 460 nm/535 nm. […] The % activation was calculated using equation 2.
The % inhibition was calculated using equation 3.

The mark [4] stands for this setting: read-out: FXR TR-FRET Binding % Inh.
The mark [5] stands for this setting: read-out: GB FXR Cell Anta. % Inh.

The structures appear in SMILES notation.

In general, IC50 refers to the midpoint of a concentration-inhibition curve. Regarding `Cc1ccc(NC(=O)c2cn(C(C)C)nc2-c2ccc(C(F)(F)F)cc2)cc1S(=O)(=O)N1CCOCC1` [Compound 4p, 1-Isopropyl-N-(4-methyl-3-(morpholinosulfonyl)phenyl)-3-(4-(trifluoromethyl)phenyl)-1H-pyrazole-4-carboxamide], on FXR [1] (setting [4]), the inhibition at 4.4 µM came out at 133 ± 5.3%. The IC50 amounted to 77.5 ± 3.7 nM on FXR [1] and 1950 ± 280 nM at FXR [3]. Further, the “GB FXR Cell Cyto % Inh.” value in series [2] is given as 19.5 ± 1.1%. On FXR [3] (setting [5]), the inhibition at 40 µM is 100 ± 3.7%.
Turning to `COc1cccc(Cn2cc(C(=O)N(C)c3ccc(C)c(S(=O)(=O)N4CCOCC4)c3)c(-c3cccc(OC)c3)n2)c1` [Compound 8-3, 1-(3-Methoxybenzyl)-3-(3-methoxyphenyl)-N-methyl-N-(4-methyl-3-(morpholinosulfonyl)phenyl)-1H-pyrazole-4-carboxamide], the inhibition at 40 µM at FXR [1] (setting [4]) is 69.7 ± 3.5%; on FXR [3] (setting [5]), 23.8 ± 0.4%. Moreover, the IC50 on FXR [1] was found to be 3810 ± 200 nM. Moreover, the “GB FXR Cell Cyto % Inh.” value in series [2] is reported as 19.7 ± 0.4 (40 μM) %. Also, on FXR [3], the “activity against FXR at 1 μM” value was “weak activity”.
As for `Cc1ccc(-c2nn(-c3ccc(F)cc3)cc2C(=O)Nc2ccc(C)c(S(=O)(=O)N3CCOCC3)c2)cc1` [Compound 4a, 1-(4-fluorophenyl)-N-(4-methyl-3-(morpholinosulfonyl)phenyl)-3-p-tolyl-1H-pyrarazole-4-carboxamide], the inhibition at 0.493 µM at FXR [1] (setting [4]) was determined as 95 ± 1.2%. Also, the figures for the IC50 at FXR [1] and at FXR [3] were 24.3 ± 0.6 nM and 2490 ± 6 nM, respectively. In series [2], the “GB FXR Cell Cyto % Inh.” value was 18.5 ± 1.0%. At FXR [3] (setting [5]), the inhibition at 40 µM was 72 ± 2.2%.
As for `Cc1ccc(-c2nn(-c3cccc(C(F)(F)F)c3)cc2C(=O)Nc2ccc(C)c(S(=O)(=O)N3CCOCC3)c2)cc1` [Compound 4d, N-(4-Methyl-3-(morpholinosulfonyl)phenyl)-3-(p-tolyl)-1-(3-(trifluoromethyl)phenyl)-1H-pyrazole-4-carboxamide], the inhibition at 0.164 µM at FXR [1] (setting [4]) was determined as 77.5 ± 4.3%. For the same compound, the IC50 on FXR [1] amounted to 23.9 ± 2.1 nM; at FXR [3] it was 22300 ± 1140 nM. The “GB FXR Cell Cyto % Inh.” value in series [2] worked out at 7.3 ± 0.2%. Moreover, at FXR [3] (setting [5]), the inhibition at 40 µM amounted to 54.8 ± 1.3%.
Consider `COc1cccc(Cn2cc(C(=O)N(C)c3ccc(C)c(S(=O)(=O)N4CCOCC4)c3)c(C(C)C)n2)c1` [Compound 8-2, 3-Isopropyl-1-(3-methoxybenzyl)-N-methyl-N-(4-methyl-3-(morpholinosulfonyl)phenyl)-1H-pyrazole-4-carboxamide], for which the inhibition at 40 µM on FXR [1] (setting [4]) is 80.3 ± 5.2%. In addition, the IC50 on FXR [1] came to 5330 ± 240 nM. In addition, the “GB FXR Cell Cyto % Inh.” value in series [2] is listed as 13.5 ± 0.4 (40 μM) %. The “activity against FXR at 1 μM” value at FXR [3] is “weak activity”. The inhibition at 20 µM at FXR [3] (setting [5]) came to 2.4 ± 0.1%.
Take `Cc1ccc(-c2nn(-c3cccc(Cl)c3)cc2C(=O)Nc2ccc(C)c(S(=O)(=O)N3CCOCC3)c2)cc1` [Compound 4b, 1-(3-Chlorophenyl)-N-(4-methyl-3-(morpholinosulfonyl)phenyl)-3-(p-tolyl)-1H-pyrazole-4-carboxamide]: the inhibition at 0.164 µM on FXR [1] (setting [4]) was 99.3 ± 1.1%. For the same compound, the IC50 on FXR [1] was determined as 10.4 ± 0.9 nM; at FXR [3] it was 5910 ± 150 nM. In addition, the inhibition at 40 µM at FXR [3] (setting [5]) came out at 60.6 ± 0.9%.
Turning to `Cc1ccc(-c2nn(-c3ccccc3)cc2C(=O)Nc2ccc(C)c(S(=O)(=O)N3CCOCC3)c2)cc1` [Compound Z26476908, reference compound], the inhibition at 0.164 µM on FXR [1] (setting [4]) was 100 ± 5.2%. Besides, the IC50 at FXR [1] was determined as 47 ± 5.1 nM; at FXR [3] it was 2620 nM. Besides, the “GB FXR Cell Cyto % Inh.” value in series [2] is listed as 17.9 ± 0.5%. For the same compound, the inhibition at 40 µM on FXR [3] (setting [5]) came to 77.2 ± 2.2%.
Take `COc1cccc(Cn2cc(CNc3ccc(C)c(S(=O)(=O)N4CCOCC4)c3)c(-c3cccc(OC)c3)n2)c1` [Compound 9-3, N-((1-(3-Methoxybenzyl)-3-(3-methoxyphenyl)-1H-pyrazol-4-yl)methyl)-4-methyl-3-(morpholinosulfonyl)aniline]: the inhibition at 1.48 µM on FXR [1] (at 1.48 μM, read-out: FXR TR-FRET Binding % Inh.) was 39.8 ± 1.8%. Moreover, at FXR [3] (setting [5]), the inhibition at 40 µM came out at 3.1 ± 0.1%.
As for `COCCc1nn(C(C)C)cc1C(=O)Nc1ccc(C)c(S(=O)(=O)N2CCOCC2)c1` [Compound 4r], the inhibition at 40 µM came out at 98.2 ± 3.8% at FXR [1] (setting [4]) and 62.5 ± 0.8% at FXR [3] (setting [5]). Further, the IC50 at FXR [1] was 3420 ± 190 nM; at FXR [3] it was 29600 ± 1750 nM. The “FXR antagonistic activity, SAR statement in words” value (“FXR antagonistic activity” below) on FXR [3] was “loss of potency”.
With `Cc1ccc(-c2nn(C(C)C)cc2C(=O)Nc2ccc(C)c(S(=O)(=O)N3CCOCC3)c2)cc1` [Compound 4f, 1-Isopropyl-N-(4-methyl-3-(morpholinosulfonyl)phenyl)-3-(p-tolyl)-1H-pyrazole-4-carboxamide], on FXR [1] (setting [4]), the inhibition at 4.4 µM worked out at 131 ± 3.8%. Moreover, on FXR [1], the IC50 came to 49.1 ± 9.9 nM. Also, on FXR [3], the “FXR antagonistic activity” value is reported as “retention of the antagonistic activity” and the concentration for half-maximal inhibition (IC50) came out at 1690 ± 180 nM. Moreover, the inhibition at 40 µM on FXR [3] (setting [5]) worked out at 99.1 ± 4.4%.
`Cc1ccc(-c2nn(-c3ccc(Cl)cc3Cl)cc2C(=O)Nc2ccc(C)c(S(=O)(=O)N3CCOCC3)c2)cc1` [Compound 4c, 1-(2,4-Dichlorophenyl)-N-(4-methyl-3-(morpholinosulfonyl)phenyl)-3-(p-tolyl)-1H-pyrazole-4-carboxamide]: on FXR [1] (setting [4]), the inhibition at 0.164 µM worked out at 120 ± 7.8%. The figures for the IC50 on FXR [1] and on FXR [3] were 14.1 ± 0.3 nM and 1240 ± 120 nM, respectively. The inhibition at 40 µM on FXR [3] (setting [5]) amounted to 89.9 ± 1.9%.
Regarding `COc1cccc(Cn2cc(C(=O)Nc3ccc(C)c(S(=O)(=O)N4CCOCC4)c3)c(-c3cccc(OC)c3)n2)c1` [Compound 4o, 1-(3-Methoxybenzyl)-3-(3-methoxyphenyl)-N-(4-methyl-3-(morpholinosulfonyl)phenyl)-1H-pyrazole-4-carboxamide], the inhibition at 0.493 µM on FXR [1] (setting [4]) turned out to be 114 ± 3.3%. On FXR [1], this compound had an IC50 of 42.8 ± 0.5 nM. On FXR [3], the “FXR antagonistic activity” value was “slightly decreased antagonistic activity” and the IC50 came to 1240 ± 90 nM. The inhibition at 40 µM on FXR [3] (setting [5]) is 89.4 ± 4.2%.
Turning to `COc1cccc(Cn2cc(C(=O)Nc3ccc(C)c(S(=O)(=O)N4CCOCC4)c3)c(-c3ccc(C(F)(F)F)cc3)n2)c1` [Compound 4q, 1-(3-Methoxybenzyl)-N-(4-methyl-3-(morpholinosulfonyl)phenyl)-3-(4-(trifluoromethyl)phenyl)-1H-pyrazole-4-carboxamide], the inhibition at 0.164 µM at FXR [1] (setting [4]) worked out at 109 ± 3.6%. In addition, the IC50 at FXR [1] came out at 30.9 ± 3.6 nM; at FXR [3], 592.7 ± 3 nM. Also, the inhibition at 40 µM on FXR [3] (setting [5]) was 97.6 ± 0.9%.
As to `COCCc1nn(Cc2cccc(OC)c2)cc1C(=O)Nc1ccc(C)c(S(=O)(=O)N2CCOCC2)c1` [Compound 4s], the inhibition at 13.3 µM on FXR [1] (at 13.3 μM, read-out: FXR TR-FRET Binding % Inh.) came out at 113.5 ± 0.8%. Also, the IC50 at FXR [1] came to 390 ± 9.4 nM. Further, at FXR [3], the “FXR antagonistic activity” value is recorded as “loss of potency” and the IC50 is 11100 ± 640 nM. Also, at FXR [3] (setting [5]), the inhibition at 40 µM is 95.9 ± 2.4%.
For the compound `Cc1ccc(-c2nn(Cc3cccc(C(F)(F)F)c3)cc2C(=O)Nc2ccc(C)c(S(=O)(=O)N3CCOCC3)c2)cc1` [Compound 4k, N-(4-methyl-3-(morpholinosulfonyl)phenyl)-3-(p-tolyl)-1-(3-(trifluoromethyl)benzyl)-1H-pyrazole-4-carboxamide], the inhibition at 0.164 µM on FXR [1] (setting [4]) stood at 99.2 ± 6.4%. Further, the results for the IC50 at FXR [1] and on FXR [3] were 18.4 ± 1.2 nM and 515 ± 25.4 nM, respectively. Besides, the inhibition at 40 µM on FXR [3] (setting [5]) was 93.4 ± 3.9%.
On to `Cc1ccc(-c2nn(CC3CC3)cc2C(=O)Nc2ccc(C)c(S(=O)(=O)N3CCOCC3)c2)cc1` [Compound 4i, 1-(Cyclopropylmethyl)-N-(4-methyl-3-(morpholinosulfonyl)phenyl)-3-(p-tolyl)-1H-pyrazole-4-carboxamide], for which, on FXR [1], the “fold decrease of activity for hFXR compared to Z26476908” value stood at 2 fold and the IC50 worked out at 76.9 ± 2.7 nM. Besides, on FXR [1] (at 1.5 μM, read-out: FXR TR-FRET Binding % Inh.), the inhibition at 1.5 µM is 105 ± 4.9%. Moreover, the inhibition at 40 µM at FXR [3] (setting [5]) is 100 ± 3.2%. Further, the 50% inhibitory concentration (IC50) at FXR [3] is 849 ± 69 nM.
On to `COc1cccc(Cn2cc(C(=O)Nc3ccc(C)c(S(=O)(=O)N4CCOCC4)c3)c(C(C)C)n2)c1` [Compound 4m, 3-Isopropyl-1-(3-methoxybenzyl)-N-(4-methyl-3-(morpholinosulfonyl)phenyl)-1H-pyrazole-4-carboxamide], for which the inhibition at 4.4 µM at FXR [1] (setting [4]) was determined as 101 ± 5.6%. The compound further had an IC50 at FXR [1] of 199 ± 21.2 nM. Also, on FXR [3], the “FXR antagonistic activity” value was “decreased the potency and affinity”; the IC50 was 3110 ± 580 nM. On FXR [3] (setting [5]), the inhibition at 40 µM amounted to 99.2 ± 2.7%.

For the origin of these results see patent US10611729B2, “Farnesoid X receptor antagonists” (City of Hope, priority 2014, dated 2020).
